According to ChEMBL document CHEMBL1201862, “PubChem BioAssay data set” (2004):
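Method: 48-hour compound exposure of cells in 96-well plates, five concentrations, linear interpolation of endpoints. Abbreviation: GI50, concentration required for 50% inhibition of growth.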 Calls of active or inactive are those of the source. No stated cut-off is given here; in the data, active = GI50 up to about 1.1 µM and inactive = higher.

Columns and labels:
Experiment in all cases: inhibition of tumour cell growth, NCI panel, 48 h
IGROV-1 = tested on: IGROV-1
SK-MEL-28 = tested on: SK-MEL-28
OVCAR-4 = tested on: OVCAR-4
KM12 = tested on: KM12
OVCAR-8 = tested on: OVCAR-8
786-0 = tested on: 786-0
Hs-578T = tested on: Hs-578T
EKVX = tested on: EKVX
OVCAR-3 = tested on: OVCAR-3
MCF7 = tested on: MCF7
UACC-62 = tested on: UACC-62
SK-OV-3 = tested on: SK-OV-3
HCT-15 = tested on: HCT-15
HOP-92 = tested on: HOP-92
UACC-257 = tested on: UACC-257
OVCAR-5 = tested on: OVCAR-5
CAKI-1 = tested on: CAKI-1
HOP-62 = tested on: HOP-62
MDA-MB-231 = tested on: MDA-MB-231
HCT-116 = tested on: HCT-116

SMILES | GI50 (IGROV-1) | GI50 (SK-MEL-28) | GI50 (OVCAR-4) | GI50 (KM12) | GI50 (OVCAR-8) | GI50 (786-0) | GI50 (Hs-578T) | GI50 (EKVX) | GI50 (OVCAR-3) | GI50 (MCF7) | GI50 (UACC-62) | GI50 (SK-OV-3) | GI50 (HCT-15) [µM] | GI50 (HOP-92) | GI50 (UACC-257) | GI50 (OVCAR-5) | GI50 (CAKI-1) | GI50 (HOP-62) | GI50 (MDA-MB-231) | GI50 (HCT-116)
COc1ccc2c(c1)/C(=C\c1c(Cl)nc3n1CCS3)C(=O)N2 | 7.28 µM (inactive) | 18.7 µM (inactive) | 11.9 µM (inactive) | 2.62 µM (inactive) | 19.7 µM (inactive) | 7.83 µM (inactive) | 11.2 µM (inactive) | 18.3 µM (inactive) | 2.77 µM (inactive) | 4.42 µM (inactive) | 4 µM (inactive) | 13.1 µM (inactive) | 3.84 | 46.5 µM (inactive) | 5.48 µM (inactive) | 13.5 µM (inactive) | 7.48 µM (inactive) | 6.35 µM (inactive) | 5.14 µM (inactive) | 3.73 µM (inactive)
CCOC(=O)CO/N=C1/C(=C2/C(=O)Nc3ccccc32)Nc2ccccc21 | 2.58 µM (inactive) | > 100 µM (inactive) | 3.24 µM (inactive) | 0.0955 µM (active) | 6.21 µM (inactive) | 7.5 µM (inactive) | 36.2 µM (inactive) | 13.4 µM (inactive) | 12.4 µM (inactive) | 50.1 µM (inactive) | 48.6 µM (inactive) | 13.6 µM (inactive) | 81.7 | 16.9 µM (inactive) | > 100 µM (inactive) | > 100 µM (inactive) | 20.1 µM (inactive) | 8.3 µM (inactive) | 7.4 µM (inactive) | 5.12 µM (inactive)
N=C(N)NS(=O)(=O)c1ccc(NC(=O)c2cccc3c(NNc4ccc(S(=O)(=O)N=C(N)N)cc4)c4ccccc4nc23)cc1 | 51.5 µM (inactive) | 37.2 µM (inactive) | 80.5 µM (inactive) | > 100 µM (inactive) | 53.5 µM (inactive) | 44.2 µM (inactive) | 54.7 µM (inactive) | 30.8 µM (inactive) | 38.2 µM (inactive) | 29.9 µM (inactive) | 46.9 µM (inactive) | > 100 µM (inactive) | 37.8 | 47.4 µM (inactive) | > 100 µM (inactive) | > 100 µM (inactive) | > 100 µM (inactive) | > 100 µM (inactive) | 46.6 µM (inactive) | 35.7 µM (inactive)
COC(=O)C1OC(SCCN)C(O)C(O)C1O (stereo not given) | > 100 µM (inactive) | > 100 µM (inactive) | > 100 µM (inactive) | > 100 µM (inactive) | > 100 µM (inactive) | > 100 µM (inactive) | > 100 µM (inactive) | > 100 µM (inactive) | > 100 µM (inactive) | > 100 µM (inactive) | > 100 µM (inactive) | > 100 µM (inactive) | > 100 | > 100 µM (inactive) | > 100 µM (inactive) | > 100 µM (inactive) | > 100 µM (inactive) | > 100 µM (inactive) | > 100 µM (inactive) | > 100 µM (inactive)
CC1OC(OC2C[C@](O)(C(=O)CF)Cc3c(O)c4c(c(O)c32)C(=O)c2ccccc2C4=O)CC(N)C1O (stereo not given in full) | 0.0877 µM (active) | 0.177 µM (active) | 0.152 µM (active) | 0.0305 µM (active) | 0.0115 µM (active) | < 0.01 µM (active) | 0.0103 µM (active) | 0.507 µM (active) | 0.233 µM (active) | < 0.01 µM (active) | < 0.0104 µM (active) | 0.0194 µM (active) | 0.0588 | 0.0483 µM (active) | 0.0794 µM (active) | 0.0719 µM (active) | < 0.01 µM (active) | < 0.01 µM (active) | 0.043 µM (active) | < 0.01 µM (active)
COC(=O)/C=C\C(C#N)(C#N)/N=C/c1cc(Br)cs1 | 3.44 µM (inactive) | 5.32 µM (inactive) | 7.91 µM (inactive) | 21 µM (inactive) | 3.84 µM (inactive) | 1.94 µM (inactive) | 22.8 µM (inactive) | 7.45 µM (inactive) | 7 µM (inactive) | 1.51 µM (inactive) | 17.7 µM (inactive) | 19.5 µM (inactive) | 2.71 | 2.19 µM (inactive) | 2.67 µM (inactive) | 6.84 µM (inactive) | 2.96 µM (inactive) | 18.6 µM (inactive) | 9.35 µM (inactive) | 1.76 µM (inactive)
CC1OC(O[C@H]2C3C=CO[C@@H](OC4OC(CO)C(O)C(O)C4O)C3[C@@]3(COC(=O)/C=C/c4ccc(O)cc4)O[C@@H]23)C(O)C(O)C1O (stereo not given in full) | > 100 µM (inactive) | > 100 µM (inactive) | > 100 µM (inactive) | > 100 µM (inactive) | > 100 µM (inactive) | > 100 µM (inactive) | > 100 µM (inactive) | > 100 µM (inactive) | > 100 µM (inactive) | > 100 µM (inactive) | > 100 µM (inactive) | > 100 µM (inactive) | > 100 | > 100 µM (inactive) | > 100 µM (inactive) | > 100 µM (inactive) | > 100 µM (inactive) | > 100 µM (inactive) | > 100 µM (inactive) | > 100 µM (inactive)
CCc1n[nH]c(=O)n1N | > 100 µM (inactive) | > 100 µM (inactive) | > 100 µM (inactive) | > 100 µM (inactive) | > 100 µM (inactive) | > 100 µM (inactive) | > 100 µM (inactive) | > 100 µM (inactive) | > 100 µM (inactive) | > 100 µM (inactive) | > 100 µM (inactive) | > 100 µM (inactive) | > 100 | > 100 µM (inactive) | > 100 µM (inactive) | > 100 µM (inactive) | > 100 µM (inactive) | > 100 µM (inactive) | > 100 µM (inactive) | > 100 µM (inactive)
